Test results: PMC8125976, “The Total Solubility of the Co-Solubilized PAHs with Similar Structures Indicated by NMR Chemical Shift” (Molecules, 2021)
≈ marks a conversion by molar mass, not a printed value.

Columns and labels:
[1] = Solubilization of PAHs in Tween 80 micellar solutions (1H-NMR quantification, MSR); details: for MSR (molar solubilization ratio): Tween 80 10-50 mM in D2O, 25 °C; for Synergistic/inhibitory level (RΔMSR), in words: Tween 80
Excerpt: (§1) Molar solubilization ratio (MSR) is used to evaluate the solubilization potential of a surfactant, which is the molar concentration of the solubilized compound per mole of the surfactant concentration when the surfactant concentration is above CMC [37, 38], expressed by: (1) MSR=S−SCMC/C−CMC where S is the apparent solubility of a solute at the surfactant concentration of C, SCMC is the apparent solubility of the solute at CMC. Usually, the slope of the solubility with respect to the surfactant concentration can be considered to be MSR.
(§2) To compare the mutual effects of solutes in co-solubilization systems, the deviation ratio of MSR (RΔMSR) can be used to evaluate the effects of synergistic (RΔMSR > 0) or inhibitory (RΔMSR < 0), which can be expressed by: (2) RΔMSR%=MSRmixture−MSRsingle/MSRsingle×100% where MSRmixture and MSRsingle are the MSR values of solutes in the binary or ternary co-solubilization system and in the single solubilization system, respectively.
(§3) All reagents were used directly without further purification. First, a series of Tween 80 pure solutions at concentrations of 10, 20, 30, 40 and 50 mM and SDS pure solutions at concentrations of 40, 60, 80, 100 and 120 mM were prepared in D2O, respectively. These concentrations were set higher than their CMCs. The solubilization experiment was processed as follows: first, 8 equal 800 μL surfactant solutions at a certain surfactant concentration were injected into eight of 1.5 mL centrifuge cuitubes, respectively. One of them without the addition of PAHs was used as the blank control. […] Next, the surfactant solutions with PAHs solubilized were equilibrated on a reciprocating water bath oscillator at 200 rpm at 25 °C for 48 h. After equilibration, the above solutions were centrifuged at 10,000 rpm for 10 min. Finally, each of 600 μL of supernatant was transferred into 5 mm NMR tubes for further detection.
All NMR experiments were performed at 25 °C using a 500 MHz Agilent ProPulse NMR spectrometer (Agilent Technologies, Santa Clara, CA, USA) equipped with a 5 mm XYZ indirect detection probe and z-direction gradient coils with a maximum nominal gradient strength of 60 G cm^−1. The pulse excitation angle of 30 ° and the relaxation delay time of 5 s in ^1H-NMR experiments were chosen to assure the complete recovery of the magnetization and the accurate quantification. The Sodium Trimethylsilylpropionate (TSP) aqueous solution in the capillary was used as an external reference for the frequency and concentration calibration. […] Based on the resonance integral area of PAHs relative to that of TSP, we calculated their actual apparent concentrations. A total of 16 accumulations were used in 2D NOESY experiments, 1 s was chosen as mixing time. […] Due to the high growth rate of rotating frame overhauser effect (ROE) than that of NOE, ROESY experiments for Tween 80 systems were conducted instead of NOESY to avoid the possible spin diffusion effect in NOESY with the long mixing time. The parameters of the 2D ROESY experiments were the same as the NOESY experiments except that the mixing time was 0.2 s. MestReNova software (version 14.0.0, Mestrelab Research, Santiago de Compostella, Spain) was used to process all NMR data.

[2] = Solubilization of PAHs in SDS micellar solutions (1H-NMR quantification, MSR); details: for MSR (molar solubilization ratio): SDS 40-120 mM in D2O, 25 °C; for Synergistic/inhibitory level (RΔMSR), in words / solubility increase (RΔMSR) compared to single system: SDS
Excerpt: as §1, §2, §3
All NMR experiments were performed at 25 °C using a 500 MHz Agilent ProPulse NMR spectrometer (Agilent Technologies, Santa Clara, CA, USA) equipped with a 5 mm XYZ indirect detection probe and z-direction gradient coils with a maximum nominal gradient strength of 60 G cm^−1. The pulse excitation angle of 30 ° and the relaxation delay time of 5 s in ^1H-NMR experiments were chosen to assure the complete recovery of the magnetization and the accurate quantification. The Sodium Trimethylsilylpropionate (TSP) aqueous solution in the capillary was used as an external reference for the frequency and concentration calibration. […] Based on the resonance integral area of PAHs relative to that of TSP, we calculated their actual apparent concentrations. A total of 16 accumulations were used in 2D NOESY experiments, 1 s was chosen as mixing time.

[3] = water; cited from earlier work
[4] = binary Ant-Pyr system vs single
[5] = binary Phe-Ant system vs single
[6] = ternary Phe-Ant-Pyr system vs single
[7] = binary Phe-Pyr system vs single

Row | SMILES | MSR (molar solubilization ratio) ([1]; binary Phe-Ant system) | MSR (molar solubilization ratio) ([1]; single solubilization system) | MSR (molar solubilization ratio) ([1]; ternary Phe-Ant-Pyr system) | Synergistic/inhibitory level (RΔMSR), in words [1, 5] | Synergistic/inhibitory level (RΔMSR), in words [1, 6] | MSR (molar solubilization ratio) ([2]; binary Phe-Ant system) | MSR (molar solubilization ratio) ([2]; single solubilization system) | MSR (molar solubilization ratio) ([2]; ternary Phe-Ant-Pyr system) | Synergistic/inhibitory level (RΔMSR), in words [2, 5] | Synergistic/inhibitory level (RΔMSR), in words [2, 6] | also measured
1 | c1ccc2cc3ccccc3cc2c1 [Ant, anthracene] | 0.0084 | 0.0094 | 0.0080 | slight inhibition | slight inhibition | 0.0011 | 0.0011 | 0.0013 | neither Phe nor Pyr contributes to the solubility increase | slight synergism | MSR (molar solubilization ratio) ([1]; binary Ant-Pyr system): 0.0081; Synergistic/inhibitory level (RΔMSR), in words [1, 4]: slight inhibition; MSR (molar solubilization ratio) ([2]; binary Ant-Pyr system): 0.0011; Synergistic/inhibitory level (RΔMSR), in words [2, 4]: neither Phe nor Pyr contributes to the solubility increase
2 | c1ccc2c(c1)ccc1ccccc12 [Phe, phenanthrene] | 0.0894 | 0.1170 | 0.0694 | inhibition | inhibition | 0.0095 | 0.0089 | 0.0166 | synergism | synergism | aqueous solubility [3]: 5.55 µM (≈ 0.989 µg/mL); MSR (molar solubilization ratio) ([1]; binary Phe-Pyr system): 0.1216; Synergistic/inhibitory level (RΔMSR), in words [1, 7]: synergism; MSR (molar solubilization ratio) ([2]; binary Phe-Pyr system): 0.0157; solubility increase (RΔMSR) compared to single system ([2]; binary Phe-Pyr system): 76.4%; Synergistic/inhibitory level (RΔMSR), in words [2, 7]: synergism; solubility increase (RΔMSR) compared to single system ([2]; ternary Phe-Ant-Pyr system): 86.5%
